Among the data in patent US7902373B2 (Pfizer Inc, priority 2006, dated 2011) are IC50 values, retold here.

For the assay, the target named is human recombinant H-PGDS (Homo sapiens, UniProt O60760). The experiment in a line: Fluorescence intensity h-PGDS TBA enzyme assay. Type of assay: biochemical. To be noted: Examples up to 622 (and 3a, 3b).
Sequence of human recombinant H-PGDS (O60760 whole entry): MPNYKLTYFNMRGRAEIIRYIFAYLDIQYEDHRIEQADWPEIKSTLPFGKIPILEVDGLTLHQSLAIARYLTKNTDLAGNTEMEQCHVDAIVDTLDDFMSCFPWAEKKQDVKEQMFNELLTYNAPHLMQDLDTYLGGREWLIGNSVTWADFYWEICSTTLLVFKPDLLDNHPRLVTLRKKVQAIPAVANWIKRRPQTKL

Turning to `CCOc1cc(CN2CCC(NC(=O)c3ccc(-c4cccc(F)c4)nc3)CC2)ccc1OC` [Example 249, N-[1-(3-Ethoxy-4-methoxybenzyl)piperidin-4-yl]-6-(3-fluorophenyl)nicotinamide], the IC50 (commonly the midpoint of a concentration-inhibition curve) worked out at 1.17 nM.
As for `Cc1nn(C)c(C)c1CN1CCC(NC(=O)c2ccc(-c3cccc(F)c3)nc2)CC1` [Example 250, 6-(3-Fluorophenyl)-N-{1-[(1,3-trimethyl-1H-pyrazol-4-yl)methyl]piperidin-4-yl}nicotinamide], the IC50 was 0.409 nM.
`CC(C)(C)CN1CCC(NC(=O)c2ccc(-c3cccc(F)c3)nc2)CC1` [Example 251, N-[1-(2,2-Dimethylpropyl)piperidin-4-yl]-6-(3-fluorophenyl)nicotinamide]: the IC50 was 0.623 nM.
As for `O=C(NC1CCN(Cc2c[nH]c3ccc(F)cc23)CC1)c1ccc(-c2cccc(F)c2)nc1` [Example 252, N-{1-[(5-Fluoro-1H-indol-3-yl)methyl]piperidin-4-yl}-6-(3-fluorophenyl)nicotinamide], the figure is 0.865 nM; as for `CCOc1ccc(CN2CCC(NC(=O)c3ccc(-c4cccc(F)c4)nc3)CC2)cc1OC` [Example 253, N-[1-(4-Ethoxy-3-methoxybenzyl)piperidin-4-yl]-6-(3-fluorophenyl)nicotinamide], 1.45 nM.
As for `O=C(NC1CCN(Cc2c[nH]c(=O)[nH]c2=O)CC1)c1ccc(-c2cccc(F)c2)nc1` [Example 254, N-{1-[(2,4-Dioxo-1234-tetrahydropyrimidin-5-yl)methyl]piperidin-4-yl}-6-(3-fluorophenyl)nicotinamide], the figure is 1.68 nM; as for `O=C(NC1CCN(Cc2ccccc2OCCO)CC1)c1ccc(-c2cccc(F)c2)nc1` [Example 255, 6-(3-Fluorophenyl)-N-{1-[2-(2-hydroxyethoxy)benzyl]piperidin-4-yl}nicotinamide], 0.738 nM.
With `O=C(NC1CCN(Cc2cccc(OCCO)c2)CC1)c1ccc(-c2cccc(F)c2)nc1` [Example 256, 6-(3-Fluorophenyl)-N-{1-[3-(2-hydroxyethoxy)benzyl]piperidin-4-yl}nicotinamide], the IC50 came to 0.397 nM.
As for `COc1cc(CN2CCC(NC(=O)c3ccc(-c4cccc(F)c4)nc3)CC2)cc(Cl)c1O` [Example 257, N-[1-(3-Chloro-4-hydroxy-5-methoxybenzyl)piperidin-4-yl]-6-(3-fluorophenyl)nicotinamide], the figure is 0.58 nM.
`O=C(NC1CCN(Cc2ccc(OCCO)cc2)CC1)c1ccc(-c2cccc(F)c2)nc1` [Example 258, 6-(3-Fluorophenyl)-N-{1-[4-(2-hydroxyethoxy)benzyl]piperidin-4-yl}nicotinamide]: the IC50 was found to be 1.24 nM.
As for `CS(=O)(=O)c1ccc(CN2CCC(NC(=O)c3ccc(-c4cccc(F)c4)nc3)CC2)cc1` [Example 259, 6-(3-Fluorophenyl)-N-{1-[4-(methylsulfonyl)benzyl]piperidin-4-yl}nicotinamide], the figure is 1.68 nM; as for `COc1ccc(CN2CCC(NC(=O)c3ccc(-c4cccc(F)c4)nc3)CC2)c(Cl)c1OC` [Example 260, N-[1-(2-Chloro-3,4-dimethoxybenzyl)piperidin-4-yl]-6-(3-fluorophenyl)nicotinamide], 0.578 nM.
In the case of `O=C(NC1CCN(Cc2cc3ccccc3nn2)CC1)c1ccc(-c2cccc(F)c2)nc1` [Example 261, N-[1-(Cinnolin-3-ylmethyl)piperidin-4-yl]-6-(3-fluorophenyl)nicotinamide], the IC50 amounted to 1.48 nM.
On to `Cc1nc2ccccc2nc1CN1CCC(NC(=O)c2ccc(-c3cccc(F)c3)nc2)CC1` [Example 262, 6-(3-Fluorophenyl)-N-{1-[(3-methylquinoxalin-2-yl)methyl]piperidin-4-yl}nicotinamide], for which the IC50 turned out to be 3.86 nM.
As for `O=C(NC1CCN(Cc2cnc3ccccc3n2)CC1)c1ccc(-c2cccc(F)c2)nc1` [Example 263, 6-(3-Fluorophenyl)-N-[1-(quinoxalin-2-ylmethyl)piperidin-4-yl]nicotinamide], the figure is 1.16 nM; as for `Cn1cc(CN2CCC(NC(=O)c3ccc(-c4cccc(F)c4)nc3)CC2)c(=O)n(C)c1=O` [Example 264, N-{1-[(1,3-Dimethyl-2,4-dioxo-1,2,3,4-tetrahydropyrimidin-5-yl)methyl]piperidin-4-yl}-6-(3-fluorophenyl)nicotinamide], 2 nM.
For `COC(=O)c1ccc2c(CN3CCC(NC(=O)c4ccc(-c5cccc(F)c5)nc4)CC3)c[nH]c2c1` [Example 265, Methyl 3-{[4-({[6-(3-fluorophenyl)pyridin-3-yl]carbonyl}amino)piperidin-1-yl]methyl}-1H-indole-6-carboxylate] the value was 4.29 nM.
For `Cc1nc(CN2CCC(NC(=O)c3ccc(-c4cccc(F)c4)nc3)CC2)c[nH]1` [Example 266, 6-(3-Fluorophenyl)-N-{1-[(2-methyl-1H-imidazol-4-yl)methyl]piperidin-4-yl}nicotinamide] the value was 2.15 nM.
Regarding `O=C(NC1CCN(Cc2cc(Cl)c(O)c(Cl)c2)CC1)c1ccc(-c2cccc(F)c2)nc1` [Example 267, N-[1-(3,5-Dichloro-4-hydroxybenzyl)piperidin-4-yl]-6-(3-fluorophenyl)nicotinamide], the IC50 was 0.994 nM.
As for `CC(C)(CN1CCC(NC(=O)c2ccc(-c3cccc(F)c3)nc2)CC1)NC(=O)OC(C)(C)C` [Example 268, tert-Butyl {2-[4-({[6-(3-fluorophenyl)pyridin-3-yl]carbonyl}amino)piperidin-1-yl]-1,1-dimethylethyl}carbamate], the half-inhibitory concentration (IC50) worked out at 8.08 nM.
Take `CN(CCCN1CCC(NC(=O)c2ccc(-c3cccc(F)c3)nc2)CC1)C(=O)OC(C)(C)C` [Example 269, tert-Butyl {3-[4-({[6-(3-fluorophenyl)pyridin-3-yl]carbonyl}amino)piperidin-1-yl]propyl}methylcarbamate]: the IC50 amounted to 3.5 nM.
With `Cc1c(CN2CCC(NC(=O)c3ccc(-c4cccc(F)c4)nc3)CC2)c(=O)n(C)c(=O)n1C` [Example 270, 6-(3-Fluorophenyl)-N-{1-[(1,3,6-trimethyl-2,4-dioxo-1,2,3,4-tetrahydropyrimidin-5-yl)methyl]piperidin-4-yl}nicotinamide], the IC50 came to 0.507 nM.
For `CCN(CC)C(=O)c1ccc(CN2CCC(NC(=O)c3ccc(-c4cccc(F)c4)nc3)CC2)cc1` [Example 271, N-(1-{4-[(Diethylamino)carbonyl]benzyl}piperidin-4-yl)-6-(3-fluorophenyl)nicotinamide], the IC50 was 5.62 nM.
As for `O=C(NC1CCN(Cc2ccc[nH]c2=O)CC1)c1ccc(-c2cccc(F)c2)nc1` [Example 272, 6-(3-Fluorophenyl)-N-{1-[(2-oxo-1,2-dihydropyridin-3-yl)methyl]piperidin-4-yl}nicotinamide], the figure is 0.816 nM; as for `CN(C)CCCOc1ccccc1CN1CCC(NC(=O)c2ccc(-c3cccc(F)c3)nc2)CC1` [Example 273, N-(1-{2-[3-(Dimethylamino)propoxy]benzyl}piperidin-4-yl)-6-(3-fluorophenyl)nicotinamide], 1.11 nM; as for `CCn1nc(C)c(CN2CCC(NC(=O)c3ccc(-c4cccc(F)c4)nc3)CC2)c1C` [Example 274, N-{1-[(1-Ethyl-3,5-dimethyl-1H-pyrazol-4-yl)methyl]piperidin-4-yl}-6-(3-fluorophenyl)nicotinamide], 2.57 nM.
As to `O=C(NC1CCN(Cc2cnn(-c3ccc(F)cc3)c2)CC1)c1ccc(-c2cccc(F)c2)nc1` [Example 275, 6-(3-Fluorophenyl)-N-(1-{[1-(4-fluorophenyl)-1H-pyrazol-4-yl]methyl}piperidin-4-yl)nicotinamide], the IC50 turned out to be 5.49 nM.
With `CCn1cc(CN2CCC(NC(=O)c3ccc(-c4cccc(F)c4)nc3)CC2)c(C)n1` [Example 276, N-{1-[(1-Ethyl-3-methyl-1H-pyrazol-4-yl)methyl]piperidin-4-yl}-6-(3-fluorophenyl)nicotinamide], the IC50 amounted to 0.743 nM.
For `CN(C)CC1(CN2CCC(NC(=O)c3ccc(-c4cccc(F)c4)nc3)CC2)CCCC1` [Example 277, N-[1-({1-[(Dimethylamino)methyl]cyclopentyl}methyl)piperidin-4-yl]-6-(3-fluorophenyl)nicotinamide], the IC50 came out at 5.72 nM.
As for `CC(C)(C)OCCN1CCC(NC(=O)c2ccc(-c3cccc(F)c3)nc2)CC1` [Example 278, N-[1-(2-tert-Butoxyethyl)piperidin-4-yl]-6-(3-fluorophenyl)nicotinamide], the figure is 5.01 nM; as for `CC(C)(C)OC(=O)CCCN1CCC(NC(=O)c2ccc(-c3cccc(F)c3)nc2)CC1` [Example 279, tert-Butyl 4-[4-({[6-(3-fluorophenyl)pyridin-3-yl]carbonyl}amino)piperidin-1-yl]butanoate], 4.17 nM.
For `CS(=O)(=O)Nc1ccc(CN2CCC(NC(=O)c3ccc(-c4cccc(F)c4)nc3)CC2)cc1` [Example 280, 6-(3-Fluorophenyl)-N-(1-{4-[(methylsulfonyl)amino]benzyl}piperidin-4-yl)nicotinamide] the value was 0.851 nM.
As for `CC(C)(C)OC(=O)NCCCN1CCC(NC(=O)c2ccc(-c3cccc(F)c3)nc2)CC1` [Example 281, tert-Butyl {3-[4-({[6-(3-fluorophenyl)pyridin-3-yl]carbonyl}amino)piperidin-1-yl]propyl}carbamate], the figure is 1.8 nM; as for `CNS(=O)(=O)c1ccc(CN2CCC(NC(=O)c3ccc(-c4cccc(F)c4)nc3)CC2)cc1` [Example 282, 6-(3-Fluorophenyl)-N-(1-{4-[(methylamino)sulfonyl]benzyl}piperidin-4-yl)nicotinamide], 0.629 nM.
As for `Cc1cccc(CN2CCC(NC(=O)c3ccc(-c4cccc(F)c4)nc3)CC2)n1` [Example 283, 6-(3-Fluorophenyl)-N-{1-[(6-methylpyridin-2-yl)methyl]piperidin-4-yl}nicotinamide], the half-maximal inhibitory concentration (IC50) worked out at 0.5 nM.
As for `CCOC(=O)Cn1ccc2cc(CN3CCC(NC(=O)c4ccc(-c5cccc(F)c5)nc4)CC3)ccc21` [Example 284, Ethyl (5-{[4-({[6-(3-fluorophenyl)pyridin-3-yl]carbonyl}amino)piperidin-1-yl]methyl}-1H-indol-1-yl)acetate], the figure is 1.43 nM.
